Counter-ions that a name gives are not always drawn.

Experiment [1] has as its system Hartley male guinea pigs. Kind of experiment: guinea pig wheal method (durability of local anesthetic action). The following applies: for ED50 for adrenaline alone (local anesthesia enhancing action) / ED50 for dexmedetomidine hydrochloride alone (local anesthesia enhancing action): added alone to lidocaine hydrochloride; for ED50 for adrenaline alone (local anesthesia enhancing action): calculated from scores of Solutions 6 to 10; for theoretical ED50 value in combined use / ED50 value obtained in the experiment in combined use: combined use of adrenaline and dexmedetomidine; for theoretical ED50 value in combined use: isobologram, mean ±95% confidence interval in brackets; for ED50 value obtained in the experiment in combined use: significantly different from theoretical, P<0.05 (T-test); for ED50 for dexmedetomidine hydrochloride alone (local anesthesia enhancing action): calculated from scores of Solutions 1 to 5.
Method: A guinea pig wheal method was employed. The hair on the back of Hartley male guinea pigs each having a body weight of 500 to 600 g was clipped. After that, 0.1 ml each of Solutions 1 to 5 blended as described above was injected intracutaneously, and the surroundings of wheals, which developed in the skin, were marked with a felt-tipped pen. Pricks were applied on six sites inside each wheal with a fixed-weight sensory needle. […] The pricks were applied every 5 minutes until 60 minutes, and the total of the number of times that an anesthetic effect was observed was used as a score to assess the durability of a local anesthetic action. A 50% effective dose (effective dose 50: ED50) for dexmedetomidine was calculated based on a score for each of Solutions 1 to 5.
Each score for Solutions 16 to 21 and Solutions 22 to 27 was calculated to assess a local anesthetic effect.
Each score for Solutions 28 to 31 was calculated to assess a local anesthetic effect.

Experiment [2] deals with Hartley male guinea pigs. Kind of experiment: peripheral blood flow by Doppler rheometer after intradermal injection. In kind it is in vivo, guinea pig. To be noted: 0.1 ml intradermal, every 5 minutes until 30 minutes, ratio to baseline; FIG. 2. As for the experimental part: The hair of the back was clipped and then three sites around the center of the back were marked with a felt-tipped pen at sufficient intervals. A blood flow value was measured by attaching a Doppler rheometer (ALF21RD; ADVANCE CO., LTD., Tokyo) probe and was used as a baseline value (Time 0). […] 0.1 ml each of Solutions 32, 33, and 34 obtained by the blending was intradermally injected into the three sites and the Doppler rheometer probe was fixed on the same sites. A blood flow value was time-dependently measured at an interval of 5 minutes after the injection until 30 minutes. The ratio of the blood flow value to the baseline value (0 to 1.0) was expressed as a peripheral blood flow degree and a time-dependent change at each of the injection sites was determined.

As to `CNCC(O)c1ccc(O)c(O)c1` (stereo not drawn) [adrenaline], in experiment [1], the “ED50 for adrenaline alone (local anesthesia enhancing action)” value is 5910 nM, the “theoretical ED50 value in combined use” value amounted to 2960 nM and the “ED50 value obtained in the experiment in combined use” value worked out at 788 nM. Besides, in experiment [1] (listed as Adrenaline), the “ED50 for adrenaline alone (local anesthesia enhancing action)” value is 5910 nM.

Take `Cc1cccc([C@H](C)c2cnc[nH]2)c1C` [dexmedetomidine hydrochloride, Dexmedetomidine hydrochloride]: in experiment [1], the “ED50 for dexmedetomidine hydrochloride alone (local anesthesia enhancing action)” value was 78.3 nM, the “theoretical ED50 value in combined use” value came out at 39.2 nM and the “ED50 value obtained in the experiment in combined use” value was found to be 11.3 nM. In addition, in experiment [1] (listed as Dexmedetomidine hydrochloride), the “ED50 for dexmedetomidine hydrochloride alone (local anesthesia enhancing action)” value was 78.3 nM. For the same compound, in experiment [2], the “peripheral blood flow / peripheral vasoconstriction” value was “tended to suppress the peripheral vasoconstriction action of adrenaline”.

These data come from patent US8603497B2, “Composition for local anesthesia” (National University Corporation Okayama University, priority 2008, dated 2013).
